Source: patent EP2064211B1, “IMIDAZO[1,2-A]PYRIDINE HYDROXYMATE COMPOUNDS THAT ARE INHIBITORS OF HISTONE DEACETYLASE” (MEI Pharma, Inc., priority 2006, dated 2008)
Converted amounts (≈) assume the structure as drawn.

Assays:
[1] = High Throughput Solubility Profiling (HTSP), kinetic solubility; format: physicochemical; conditions: phosphate buffer with 2.5% DMSO, aqueous buffer, kinetic from dmso stock, phosphate buffer (pH 7), final concentration 250 µM
Description: Determining compound aqueous solubility has become an essential early measurement in the drug discovery process. Poor aqueous solubility can cause problems in many in vitro testing techniques, leading to unreliable results. The standard way to determine the solubility of a compound is to use the shake-flask solubility method. However, this method is inherently low-throughput and labour intensive.
10mM compound stock in DMSO was dissolved in phosphate buffer (pH 7) to give a final concentration of 250µM in 96-well plates in triplicate. The plate was shaken for 1.5 hours at 450 rpm and left to stand for 2 hours to allow the compound to reach its saturation point. The plate was then centrifuged at 2000g for 15 minutes. The supernatant was transferred and mixed with 20µL of DMSO in another 96-well plate. A calibration curve at 100µM and 250µM was prepared from the 10mM stock by dissolving in 60% methanol/phosphate buffer solution. LC/MS was used in the analysis and the area counts were obtained by using the Quantify Method Editor. Using the three point standard curve including zero, the results for solubility were reported. […]

[2] = Measurement of microsomal stability; format: in vitro ADME; conditions: pooled human liver microsomes 1.0 mg/ml, test compound 5 µM, pH 7.4, incubation up to 60 min
Description: Metabolic stability measurements in vitro using liver microsomes aids in the prediction of in vivo hepatic clearance and compound stability towards phase I biotransformation reactions mediated by P450 isozymes.
Pooled human liver microsome (HLM) preparation was purchased from BD Gentest (BD BioSciences). The incubations consisted of test compound (5 µM) or control compound (Verapamil), NADPH-generating system solution A (25 mM NADP^+, 66 mM glucose-6-phosphate, 66 mM MgCl2 in H2O), NADPH-generating system solution B (40 U/ml glucose-6-phosphate dehydrogenase in 5 mM sodium citrate) and 1.0 mg/ml microsomal protein, respectively, in 100 mM potassium phosphate buffer (pH 7.4). Samples are incubated for 0, 5, 15, 30, 45, 60min. Reaction is terminated with ice-cold 80% acetonitrile and 20% DMSO. Samples are subsequently centrifuged at 4°C for 15 min at 2,000 rpm. 100 µL of the supernatant is transferred to the LC-MS plate for analysis. Before quantitative analysis, the compound is tuned in the LC/MS machine to get the optimized MS condition. Liquid chromatography is performed on a Luna C18 column (Phenomenex U.S.A, Torrance, CA) (2x50mm, […]). Percentage (%) remaining of compound (by area) of each time point is calculated with respect to time 0. Plot %remaining against time (min) to obtain the curve and use the Prism software to obtain the T1/2. […]

HDAC1 enzyme = molecular target: T1, HDAC1 enzyme (Homo sapiens, UniProt Q13547); test: In vitro HDAC assay for determination of IC50 values (BIOMOL fluorescent-based HDAC activity assay); format: biochemical; conditions: recombinant GST-HDAC1, 500 uM Flur de lys substrate, room temperature 2 h; read-out: IC50 (HDAC 1)
T1 construct: Amplification of human HDAC1 coding region from this cDNA library was cloned separately into the baculovirus expression pDEST20 vector; made in house; host or cells: SF9 insect cells (baculovirus, pDEST20 vector)
Description: Human cDNA library was prepared using cultured SW620 cells. Amplification of human HDAC1 coding region from this cDNA library was cloned separately into the baculovirus expression pDEST20 vector (GATEWAY Cloning Technology, Invitrogen Pte Ltd). The pDEST20-HDAC1 construct was confirmed by DNA sequencing. Recombinant baculovirus was prepared using the Bac-To-Bac method following the manufacturer's instruction (Invitrogen Pte Ltd).
Expression of GST-HDAC1 was done by infecting SF9 cells (Invitrogen Pte Ltd) with pDEST20-HDAC1 baculovirus at MOI=1 for 48 h. Soluble cell lysate was incubated with pre-equilibrated Glutathione Sepharose 4B beads (Amersham) at 4°C for 2 h. The beads were washed with PBS buffer for 3 times. The GST-HDAC1 protein was eluted by elution buffer containing 50 mM Tris, pH8.0, 150mM NaCl, 1% Triton X-100 and 10mM or 20mM reduced Glutathione. The purified GST-HDAC1 protein was dialyzed with HDAC storage buffer containing 10mM Tris, pH7.5, 100mM NaCl and 3mM MgCl2. 20% Glycerol was added to purified GST-HDAC1 protein before storage at -80°C.
The assay has been carried out in 96 well format and the BIOMOL fluorescent-based HDAC activity assay has been applied. The reaction composed of assay buffer, containing 25 mM Tris pH 7.5, 137 mM NaCl, 2.7 mM KCl, 1 mM MgCl2, 1 mg/ml BSA, tested compounds, an appropriate concentration of HDAC1 enzyme, 500 uM Flur de lys generic substrate for HDAC1 enzyme and subsequently was incubated at room temperature for 2 h. Flur de lys Developer was added and the reaction was incubated for 10 min. Briefly, deacetylation of the substrate sensitizes it to the developer, which then generates a fluorophore. The fluorophore is excited with 360 nm light and the emitted light (460 nm) is detected on a fluorometric plate reader (Tecan Ultra Microplate detection system, Tecan Group Ltd.).
The analytical software, Prism 4.0 (GraphPad Software Inc) has been used to generate IC50 from a series of data. IC50 is defined as the concentration of compound required for 50% inhibition of HDAC enzyme activity.

Colo205 cells = test: Cell-based proliferation assay for determination of GI50 values (CyQUANT); parameters: species or system Human; conditions: Homo sapiens, COLO 205, compound treatment 96 h, concentration for 50% inhibition of cell growth, read-out: Gl50 (Colo205)
Description: Human cancer cell lines (e.g. Colo205) were obtained from ATCC. Colo205 cells were cultivated in RPMI 1640 containing 2 mM L-Glutamine, 5% FBS, 1.0 mM Na Pyruvate. Colo205 cells were seeded in 96-wells plate at 5000 cells per well. The plates were incubated at 37°C, 5% CO2, for 24 h. Cells were treated with compounds at various concentrations for 96 h. Cell growth was then monitored using CyQUANT® cell proliferation assay (Invitrogen Pte Ltd). Dose response curves were plotted to determine Gl50 values for the compounds using XL-fit (ID Business Solution, Emeryville, CA). Gl50 is defined as the concentration of compound required for 50% inhibition of cell growth.

T1 sequence (Q13547 whole entry): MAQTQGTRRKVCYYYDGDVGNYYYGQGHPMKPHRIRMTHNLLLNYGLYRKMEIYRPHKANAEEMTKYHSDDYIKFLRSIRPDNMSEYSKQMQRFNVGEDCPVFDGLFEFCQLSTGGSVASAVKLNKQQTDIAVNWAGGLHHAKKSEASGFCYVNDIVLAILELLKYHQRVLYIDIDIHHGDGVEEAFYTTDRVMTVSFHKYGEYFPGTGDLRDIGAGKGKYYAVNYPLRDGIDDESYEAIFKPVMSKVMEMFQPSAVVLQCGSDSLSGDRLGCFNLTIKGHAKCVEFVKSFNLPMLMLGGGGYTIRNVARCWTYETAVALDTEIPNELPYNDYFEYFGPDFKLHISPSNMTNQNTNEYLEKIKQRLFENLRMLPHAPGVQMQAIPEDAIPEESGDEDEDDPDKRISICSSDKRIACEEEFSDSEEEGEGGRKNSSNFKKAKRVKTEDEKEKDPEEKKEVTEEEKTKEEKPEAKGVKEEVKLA

**Q.** Which results are given for CCCCc1nc2cc(C=CC(=O)NO)ccn2c1CNC(C)(C)C [Compound 5, 3-[2-Butyl-3-(tert-butylamino-methyl)-imidazo[1,2-a]pyridin-7-yl]-N-hydroxy-acrylamide]?
**A.** solubility [1]: 200 µM (≈ 68.9 µg/mL); half-life at 5 µM [2]: > 1 h; IC50 (HDAC1 enzyme): 20 nM; IC50 (Colo205 cells): 140 nM

**Q.** Which half-life at 5 µM [2] does the source give for CCCCN(CC)Cc1c(C)nc2cc(C=CC(=O)NO)ccn12 [Compound 29, 3-{3-[(Butyl-ethyl-amino)-methyl]-2-methyl-imidazo[1,2-a]pyridin-7-yl}-N-hydroxy-acrylamide] here?
**A.** The half-life at 5 µM was 0.983 h.

**Q.** What about the IC50 (HDAC1 enzyme) of the same compound?
**A.** Its IC50 is 30 nM.

**Q.** What about the IC50 (Colo205 cells) of the same compound?
**A.** The IC50 was 180 nM.

**Q.** What does the source list for CCCc1nc2cc(C=CC(=O)NO)ccn2c1CNC(C)(C)C [Compound 48, 3-[3-(tert-Butylamino-methyl)-2-propyl-imidazo[1,2-a]pyridin-7-yl]-N-hydroxy-acrylamide]?
**A.** solubility [1]: 168 µM (≈ 55.5 µg/mL); half-life at 5 µM [2]: > 1 h; IC50 (HDAC1 enzyme): 40 nM; IC50 (Colo205 cells): 180 nM

**Q.** Which results are given for CCN(CCC(C)C)Cc1c(C)nc2cc(C=CC(=O)NO)ccn12 [Compound 49, 3-(3-{[Ethyl-(3-methyl-butyl)-amino]-methyl}-2-methyl-imidazo[1,2-a]pyridin-7-yl)-N-hydroxy-acrylamide]?
**A.** solubility [1]: > 250 µM; half-life at 5 µM [2]: > 1 h; IC50 (Colo205 cells): 110 nM

**Q.** Which results are given for CCN(CCC(C)(C)C)Cc1c(C)nc2cc(C=CC(=O)NO)ccn12 [Compound 50, 3-(3-{[(3,3-Dimethyl-butyl)-ethyl-amino]-methyl}-2-methyl-imidazo[1,2-a]pyridin-7-yl)-N-hydroxy-acrylamide]?
**A.** half-life at 5 µM [2]: 0.75 h; IC50 (HDAC1 enzyme): 50 nM; IC50 (Colo205 cells): 160 nM

**Q.** Which half-life at 5 µM [2] does the source give for CCCCN(CC)Cc1c(CC)nc2cc(C=CC(=O)NO)ccn12 [Compound 63, 3-{3-[(Butyl-ethyl-amino)-methyl]-2-ethyl-imidazo[1,2-a]pyridin-7-yl}-N-hydroxy-acrylamide] here?
**A.** The half-life at 5 µM was greater than 1 h.

**Q.** What about the IC50 (HDAC1 enzyme) of the same compound?
**A.** Its IC50 is 50 nM.

**Q.** And the IC50 (Colo205 cells)?
**A.** The IC50 was 180 nM.

**Q.** Which half-life at 5 µM [2] does the source give for CCc1nc2cc(C=CC(=O)NO)ccn2c1CN(CC)CCC(C)C [Compound 64, 3-(2-Ethyl-3-{[ethyl-(3-methyl-butyl)-amino]-methyl}-imidazo[1,2-a]pyridin-7-yl)-N-hydroxy-acrylamide] here?
**A.** The half-life at 5 µM was greater than 1 h.

**Q.** And the IC50 (HDAC1 enzyme)?
**A.** The IC50 was 20 nM.

**Q.** And the IC50 (Colo205 cells)?
**A.** Its IC50 is 100 nM.

**Q.** Which results are given for CC(C)CCc1nc2cc(C=CC(=O)NO)ccn2c1CNC(C)(C)C [Compound 65, 3-[3-(tert-Butylamino-methyl)-2-(3-methyl-butyl)-imidazo[1,2-a]pyridin-7-yl]-N-hydroxy-acrylamide]?
**A.** half-life at 5 µM [2]: > 1 h; IC50 (HDAC1 enzyme): 20 nM; IC50 (Colo205 cells): 100 nM

**Q.** Which results are given for CCCCN(CC)Cc1c(CCC(C)C)nc2cc(C=CC(=O)NO)ccn12 [Compound 66, 3-[3-[(Butyl-ethyl-amino)-methyl]-2-(3-methyl-butyl)-imidazo[1,2-a]pyridin-7-yl]-N-hydroxy-acrylamide]?
**A.** IC50 (HDAC1 enzyme): 40 nM; IC50 (Colo205 cells): 160 nM

**Q.** Which results are given for CCN(CCC(C)C)Cc1c(CCC(C)C)nc2cc(/C=C/C(=O)NO)ccn12 [Compound 67, 3-[3-{[Ethyl-(3-methyl-butyl)-amino]-methy}-2-(3-methyl-butyl)-imidazo[1,2-a]pyridin-7-yl]-N-hydroxy-acrylamide]?
**A.** IC50 (HDAC1 enzyme): 30 nM; IC50 (Colo205 cells): 130 nM

**Q.** For CCN(CCC(C)(C)C)Cc1c(CCC(C)C)nc2cc(C=CC(=O)NO)ccn12 [Compound 68, 3-[3-{[(3,3-Dimethyl-butyl)-ethyl-amino]-methyl}-2-(3-methyl-butyl)-imidazo[1,2-a]pyridin-7-yl]-N-hydroxy-acrylamide], which IC50 (HDAC1 enzyme) is on record?
**A.** The IC50 was 40 nM.

**Q.** What about the IC50 (Colo205 cells) of the same compound?
**A.** Its IC50 is 130 nM.
